Results from paper PMC8085013, “Mixture interactions at mammalian olfactory receptors are dependent on the cellular environment” (Scientific Reports, 2021).

Columns and labels:
[1] = tested on: endogenous adrenergic receptors; assay: Isoproterenol saturating control in the cAMP/CNGCmut calcium influx assay in HEK293 cells; assay type: cell-based; conditions: 10 µM, applied for 5-min
Method: Calcium imaging was performed as described previously. HEK293 cells were incubated (30 min/37 °C) in a DMEM containing 6–8 µM Fluo-4/AM (Invitrogen) or Fluo-2/AM (TefLabs) containing 0.04% Pluronic F127. Activity of cells expressing untagged ORs from the bicistronic pTR plasmid was reported by expressed GCaMP3. Odorant solutions were applied sequentially to the cells for 5 s with a 3 min interval between each application to allow recovery from desensitization resulting from previous application of odorants. In the case of prolonged 10-min stimulation, the cells were allowed to recover for at least 10 min before adding a binary mix or isoproterenol alone, activating endogenous production of cAMP. Cells growing either on a 35-mm plastic dish or on a round poly-L-lysine coated cover glass were transferred to the stage of an inverted microscope (Axiovert 200, Zeiss) equipped with a 10x/0.5NA Fluar objective. Odorants were applied to the cells as a 5-s long pulse using a computer-controlled fast perfusion system (RSC-200, BioLogic, France) ensuring precise delivery of the stimulus with a minimal time lag. The perfusion system was controlled by Clampex 9.2 or 10.2 software (Molecular Devices). In some experiments, cells were pre-incubated with a putative antagonist for 30-s before applying a 5-s pulse of agonist. […]

mouse Olfr73 [2] = biological target: T1, mouse Olfr73 (Mus musculus, UniProt Q920P2); assay: GCaMP3 calcium imaging of rat OSNs ectopically expressing Olfr73 (rAAV2/5), 5-s odorant pulse; assay type: cell-based; conditions: 5-s pulse
T1 sequence (Q920P2 1-313): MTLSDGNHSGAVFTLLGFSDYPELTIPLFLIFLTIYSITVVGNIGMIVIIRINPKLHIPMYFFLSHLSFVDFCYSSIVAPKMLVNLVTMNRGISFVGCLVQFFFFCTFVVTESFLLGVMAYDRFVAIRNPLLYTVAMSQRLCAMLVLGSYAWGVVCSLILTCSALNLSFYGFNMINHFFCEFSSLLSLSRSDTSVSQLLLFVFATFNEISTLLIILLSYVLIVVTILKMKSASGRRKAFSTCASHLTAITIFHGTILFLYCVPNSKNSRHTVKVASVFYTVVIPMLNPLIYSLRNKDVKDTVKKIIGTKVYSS

mouse Olfr73 [3] = biological target: T1, mouse Olfr73; design: method as in PMID 25149566; conditions: starred cells, previously published in vitro work under the same conditions ref 25; cited from earlier work
mouse Olfr73 [4] = biological target: T1, mouse Olfr73; assay: GCaMP3 calcium imaging of mouse OSNs ectopically expressing Olfr73 (rAAV2/5), 5-s odorant pulse; assay type: cell-based; conditions: 5-s pulse
mouse Olfr73 [5] = biological target: T1, mouse Olfr73; design: method as in PMID 25149566; conditions: starred cells, previously published in vitro work under the same conditions ref 25; cited from earlier work; remark: listed apart in the source
Olfr599 [6] = biological target: T2, Olfr599 (Mus musculus, UniProt Q8VG01); assay: Calcium imaging of HEK293 cells expressing Olfr599; assay type: cell-based
T2 sequence (Q8VG01 entry or part of it): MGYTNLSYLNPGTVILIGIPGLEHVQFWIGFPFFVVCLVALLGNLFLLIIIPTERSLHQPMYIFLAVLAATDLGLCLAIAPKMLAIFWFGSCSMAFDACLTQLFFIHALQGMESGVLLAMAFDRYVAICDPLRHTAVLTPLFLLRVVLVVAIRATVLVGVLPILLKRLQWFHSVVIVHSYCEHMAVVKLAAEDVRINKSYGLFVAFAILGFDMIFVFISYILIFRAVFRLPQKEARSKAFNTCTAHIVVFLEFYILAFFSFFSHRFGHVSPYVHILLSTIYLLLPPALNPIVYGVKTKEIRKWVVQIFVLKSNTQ
Method: Heterologous expression of mouse ORs was based on the previously published method. HEK293 (ATCC CRL-1537) or HEK293T (ATCC CRL-3216) cells were grown in a high glucose […] (DMEM) supplemented with 10% FBS, penicillin and streptomycin, and 2 mM L-glutamine and maintained at 37 °C (5% CO2). A rhodopsin-tagged mouse olfactory receptor Olfr73 and Olfr599 (provided by Dr. Matsunami, Duke University) was co-expressed with RTP1s, a short version of the Receptor Transporting Protein 1 ensuring proper surface trafficking of the receptor (provided by Dr. Touhara, University of Tokyo). To reconstitute different G-protein coupled signaling pathways, one of the three G-proteins was co-expressed along with the OR and RTP1s, promiscuous mouse Gα15 (Thermo Scientific Open Biosystems), heterotrimeric Gαq11/ß1/γ13, both coupled to endogenous PLC/calcium release, and human Gαolf (Missouri S&T cDNA Resource Center). To assay activity-dependent accumulation of cAMP generated by activation of the Gs/Golf pathway, the cells were additionally co-transfected with a mutated A2 subunit of the rat olfactory cyclic nucleotide gated channel (CNGCmut). Two mutations C460W and E583M ensured high sensitivity and selectivity of the channel to cAMP (a gift from Dr. Rich, University of South Alabama). Transfections were performed using Calfectin (SignaGen). […]

Olfr599 [7] = biological target: T2, Olfr599; assay: GCaMP3 calcium imaging of mouse OSNs ectopically expressing Olfr599 (rAAV2/5); assay type: cell-based; conditions: each at 100 µM, 5-s pulse
Method: Animals 4–6 weeks of age were used for experiments 7–21 days post-inoculation with rAAV2/5 encoding OR-furin2A-GCaMP3. Calcium imaging was performed as detailed previously. Tissue was prepared and mounted with the apical surface facing up. The chamber was transferred to the stage of an upright microscope (Zeiss Axioskop-2F) equipped with a 40×/0.75NA long distance water-immersion objective lens. Experimental solutions were applied for a duration of 5 s directly to the field of view through a 100 µm diameter needle made of fused silica and connected to a 9-channel Teflon manifold. Solution application was controlled by electronic valves (VC-6, Warner Instruments). The calcium response is presented as an increase of GCaMP3 fluorescence originating from the knob and underlying dendrite. The tissue was illuminated using a standard eGFP filter cube BP490 nm/ 535 nm (Omega Optical, USA) and the emitted light was collected at 530 nm (BP 530/20 nm, Omega Optical, USA) by a 12-bit cooled CCD camera (ORCA R2, Hamamatsu, Japan). […] Before processing, fluorescence intensity was corrected for the background. Each knob was assigned a region of interest (ROI) and changes in fluorescence intensity within each ROI were analyzed and expressed as the peak fractional change in fluorescent light intensity (F-Fo)/Fo where Fo is the baseline fluorescence before application of experimental solutions.

CC(C)NCC(O)c1ccc(O)c(O)c1 (stereo not shown) [Isoproterenol]
cAMP-dependent response [1]: robust sustained response

C=C(C)[C@@H]1CCC2=CC(=O)C[C@@H](C)[C@]2(C)C1 [Nootkatone, nootkatone]
Agonism/antagonism, OSN Ca2+ Rat (mouse Olfr73 [2]; strong agonist 100 µM, putative antagonist 1 mM): Agonist | Response to ligand applied alone (mouse Olfr73 [2]; rat Olfr73-OSNs): lower than that to eugenol | Agonism/antagonism, HEK293 short odor Ca2+ Gs/olf (mouse Olfr73 [3]): Inactive* | Agonism/antagonism, OSN Ca2+ Mouse (mouse Olfr73 [4]; strong agonist 100 µM, putative antagonist 1 mM, single or as pair): Agonist | Response relative to the response to eugenol (mouse Olfr73 [4]; ligand 1 mM, Olfr73-OSNs): 50% | Response to ligand applied alone (mouse Olfr73 [4]; mouse Olfr73-OSNs): weak agonist | Agonism/antagonism, HEK293 short odor Ca2+ G15 (mouse Olfr73 [5]): Inactive*

CCCCCCCC(=O)O [Octanoic acid]
Response to ligand applied alone (Olfr599 [6]; HEK293, Olfr599 with Gαq11/ß1/γ13, 100 µM): robust activation | EC50 (Olfr599 [6]; HEK293 cells, Olfr599): 70 µM | Response to ligand applied alone (Olfr599 [7]): evoked reliable neuronal responses

isoeugenol
Agonism/antagonism, HEK293 short odor Ca2+ Gs/olf (mouse Olfr73 [3]): Agonist* | Agonism/antagonism, HEK293 short odor Ca2+ G15 (mouse Olfr73 [5]): Agonist*
